This is an account of results in patent publication US10800791B2, “Triazole ACC inhibitors and uses thereof” (Gilead Apollo, LLC, priority 2015, dated 2020).

Values after ≈ are worked out from the molar mass of the structure shown. Where two headings read alike, the source gives them in different places.

The test system of one experiment is C. krusei. Nature of the experiment: Antifungal Activity Assay (broth microtiter MIC), C. krusei. Format: cell-based, Candida krusei. The conditions noted are these: Pichia kudriavzevii, ATCC6258, 48 h. In outline: (§1)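 Colonies from 24 h Sabouraud dextrose agar plates (35° C) are suspended in RPMI 1640+MOPS and diluted to give 2.5×10^3 CFU/mL in the wells. Plates are set up per CLSI M27-A3. Visual MIC is recorded at 48 h.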

The target in another experiment is fungal (fACC2) (UniProt Q00955). The note with it: read-out: fACC2 (in vitro ACC2 Inhibition Assay, IC50), ADP-Glo, 5 nM ACC2, 20 μM ATP, 20 μM acetyl-CoA.
fungal (fACC2), sequence (Q00955 whole entry): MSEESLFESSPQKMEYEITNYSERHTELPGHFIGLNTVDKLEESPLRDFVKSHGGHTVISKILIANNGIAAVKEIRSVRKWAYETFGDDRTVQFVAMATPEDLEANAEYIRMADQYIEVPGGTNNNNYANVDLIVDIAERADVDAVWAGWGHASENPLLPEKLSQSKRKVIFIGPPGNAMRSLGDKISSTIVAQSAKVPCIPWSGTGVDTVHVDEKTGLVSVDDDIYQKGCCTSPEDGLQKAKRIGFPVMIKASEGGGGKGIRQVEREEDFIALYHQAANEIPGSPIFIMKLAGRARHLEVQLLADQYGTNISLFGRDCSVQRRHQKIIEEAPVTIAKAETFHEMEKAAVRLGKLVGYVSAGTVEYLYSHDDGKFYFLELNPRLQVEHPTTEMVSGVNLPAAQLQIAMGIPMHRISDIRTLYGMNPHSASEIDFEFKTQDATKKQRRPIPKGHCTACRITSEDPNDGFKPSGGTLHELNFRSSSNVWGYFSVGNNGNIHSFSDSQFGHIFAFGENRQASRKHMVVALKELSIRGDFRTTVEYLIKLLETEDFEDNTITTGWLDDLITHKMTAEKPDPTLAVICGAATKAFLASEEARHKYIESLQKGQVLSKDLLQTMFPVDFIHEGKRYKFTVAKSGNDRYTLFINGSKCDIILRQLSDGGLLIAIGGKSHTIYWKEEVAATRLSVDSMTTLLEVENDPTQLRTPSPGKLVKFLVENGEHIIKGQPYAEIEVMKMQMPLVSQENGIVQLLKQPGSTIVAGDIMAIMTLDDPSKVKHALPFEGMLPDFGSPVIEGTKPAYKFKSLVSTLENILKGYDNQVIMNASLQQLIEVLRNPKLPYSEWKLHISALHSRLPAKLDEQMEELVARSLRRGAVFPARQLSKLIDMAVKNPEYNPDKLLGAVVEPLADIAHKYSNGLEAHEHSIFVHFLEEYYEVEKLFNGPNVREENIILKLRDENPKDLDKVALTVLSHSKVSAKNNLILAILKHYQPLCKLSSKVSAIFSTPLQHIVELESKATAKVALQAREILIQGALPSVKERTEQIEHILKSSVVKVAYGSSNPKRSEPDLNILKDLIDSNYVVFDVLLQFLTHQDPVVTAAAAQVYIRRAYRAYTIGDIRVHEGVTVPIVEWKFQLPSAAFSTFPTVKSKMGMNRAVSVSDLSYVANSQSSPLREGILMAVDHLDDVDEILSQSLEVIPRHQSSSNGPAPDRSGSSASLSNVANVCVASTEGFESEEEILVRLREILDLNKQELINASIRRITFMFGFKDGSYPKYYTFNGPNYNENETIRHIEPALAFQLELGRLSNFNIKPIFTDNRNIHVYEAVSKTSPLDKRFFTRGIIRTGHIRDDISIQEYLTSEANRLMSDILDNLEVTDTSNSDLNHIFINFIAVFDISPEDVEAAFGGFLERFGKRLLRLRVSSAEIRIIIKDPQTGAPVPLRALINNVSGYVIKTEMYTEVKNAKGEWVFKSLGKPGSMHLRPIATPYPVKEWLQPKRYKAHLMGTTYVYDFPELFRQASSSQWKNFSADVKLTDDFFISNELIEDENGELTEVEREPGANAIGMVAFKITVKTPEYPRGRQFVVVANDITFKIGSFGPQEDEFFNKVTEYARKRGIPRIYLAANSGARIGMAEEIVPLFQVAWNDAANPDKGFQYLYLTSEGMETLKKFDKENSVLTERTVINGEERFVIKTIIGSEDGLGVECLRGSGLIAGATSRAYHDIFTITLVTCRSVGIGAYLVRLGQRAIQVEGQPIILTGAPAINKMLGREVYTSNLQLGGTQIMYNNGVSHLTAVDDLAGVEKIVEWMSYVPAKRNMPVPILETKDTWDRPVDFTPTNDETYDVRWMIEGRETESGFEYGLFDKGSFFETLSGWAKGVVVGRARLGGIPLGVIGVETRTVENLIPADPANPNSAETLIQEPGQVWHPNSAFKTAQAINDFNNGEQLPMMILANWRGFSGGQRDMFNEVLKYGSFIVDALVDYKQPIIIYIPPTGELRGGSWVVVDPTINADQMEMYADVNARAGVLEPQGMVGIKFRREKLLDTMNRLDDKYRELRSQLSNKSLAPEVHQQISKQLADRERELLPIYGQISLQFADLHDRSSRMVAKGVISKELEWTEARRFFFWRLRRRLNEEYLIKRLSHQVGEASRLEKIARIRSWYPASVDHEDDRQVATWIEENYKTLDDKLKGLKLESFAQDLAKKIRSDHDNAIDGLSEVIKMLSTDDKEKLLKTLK
The next experiment concerns Rhizoctonia solani (Rs). Description: Growth inhibition assay of fungal pathogens, Rs. The conditions noted are these: 48 h. Format: cell-based.
The subject of another experiment is Botrtyis cinerea (Bc). Description: Growth inhibition assay of fungal pathogens, Bc. The note with it: 48 h. Format: cell-based. In outline: (§2)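 Inhibition percentages reflect 48 h OD600 and visual scores relative to a 2% DMSO control. Test concentrations were 50, 10, 2 ppm or 2, 0.4, 0.08 ppm final, applied to spores in 17% V8 medium.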
For experiment [1], the system named is Fusarium virguliforme (Fv). Description: Growth inhibition assay of fungal pathogens, Fv. Type of experiment: cell-based. The note with it: 48 h. In outline:
as §2

The next experiment relates to Septoria tritici (St). Description: Growth inhibition assay of fungal pathogens, St. Format: cell-based. The note with it: Zymoseptoria tritici, 48 h. The method in brief:
as §2

Experiment [2] concerns Collectotrichum graminicola (Cg). Nature of the experiment: Growth inhibition assay of fungal pathogens, Cg. Type of experiment: cell-based. The conditions noted are these: 48 h. The method in brief: as §2
The test system of a further experiment is C. albicans. Description: Antifungal Activity Assay (broth microtiter MIC), C. albicans. The conditions noted are these: Candida albicans, ATCC90028, 48 h. Type of experiment: cell-based, Candida albicans. In outline:
as §1

The subject of another experiment is C. parapsilosis. Description: Antifungal Activity Assay (broth microtiter MIC), C. parapsilosis. Type of experiment: cell-based, Candida parapsilosis. The note with it: Lodderomyces parapsilosis, ATCC22019, 48 h. In outline:
as §1

For experiment [3], the system named is Fusarium moniliforme (Fm). Nature of the experiment: Growth inhibition assay of fungal pathogens, Fm. Format: cell-based. The conditions noted are these: for IC90: Fusarium verticillioides, 48 h, read-out: Concentration at 90% Inhibition Fm. In outline: as §2
The next experiment deals with Diplodia maydis (Dm). Description: Growth inhibition assay of fungal pathogens, Dm. Format: cell-based. The conditions noted are these: Stenocarpella maydis, 48 h. The method in brief: as §2
Where [4] appears, read: Table 3a, ATCC 6258, 3 replicates, MIC recorded at 48 h, read-out: MIC, C. krusei ATCC 6258.
Where [5] appears, read: Table 3b (additional results), ATCC 6258, 3 replicates, MIC recorded at 48 h, read-out: MIC, C. krusei ATCC 6258.
[6] abbreviates: mycelial plugs, growth inhibition at 48 hours vs 2% DMSO control, read-out: Concentration at 90% Inhibition Rs.
[7] abbreviates: mycelial plugs, growth inhibition vs 2% DMSO control at 48 hours, read-out: Concentration at 90% Inhibition Rs.
[8] abbreviates: Botrtyis cinerea, growth inhibition at 48 hours vs 2% DMSO control, read-out: Concentration at 90% Inhibition Bc.
[9] abbreviates: Botrtyis cinerea, growth inhibition vs 2% DMSO control at 48 hours, read-out: Concentration at 90% Inhibition Bc.
[10] abbreviates: growth inhibition at 48 hours vs 2% DMSO control, read-out: Concentration at 90% Inhibition Fv.
Where [11] appears, read: growth inhibition vs 2% DMSO control at 48 hours, read-out: Concentration at 90% Inhibition Fv.
Setting [12] is: Septoria tritici, growth inhibition at 48 hours vs 2% DMSO control, read-out: Concentration at 90% Inhibition St.
Where [13] appears, read: Septoria tritici, growth inhibition vs 2% DMSO control at 48 hours, read-out: Concentration at 90% Inhibition St.
The mark [14] stands for this setting: Collectotrichum graminicola, growth inhibition at 48 hours vs 2% DMSO control, read-out: Concentration at 90% Inhibition Cg.
Setting [15] is: Collectotrichum graminicola, growth inhibition vs 2% DMSO control at 48 hours, read-out: Concentration at 90% Inhibition Cg.
The mark [16] stands for this setting: Table 3a, ATCC 90028, 3 replicates, MIC recorded at 48 h, read-out: MIC, C. albicans ATCC 90028.
Setting [17] is: Table 3b (additional results), ATCC 90028, 3 replicates, MIC recorded at 48 h, read-out: MIC, C. albicans ATCC 90028.
[18] abbreviates: Table 3a, ATCC 22019, 3 replicates, MIC recorded at 48 h, read-out: MIC, C. parapsilosis ATCC 22019.
Where [19] appears, read: Table 3b (additional results), ATCC 22019, 3 replicates, MIC recorded at 48 h, read-out: MIC, C. parapsilosis ATCC 22019.
[20] abbreviates: Fusarium moniliforme, growth inhibition at 48 hours vs 2% DMSO control.
The mark [21] stands for this setting: Fusarium moniliforme, growth inhibition vs 2% DMSO control at 48 hours.
The mark [22] stands for this setting: Diplodia maydis, growth inhibition at 48 hours vs 2% DMSO control, read-out: Concentration at 90% Inhibition Dm.
Setting [23] is: Diplodia maydis, growth inhibition vs 2% DMSO control at 48 hours, read-out: Concentration at 90% Inhibition Dm.

As for `COc1ccc(F)cc1[C@H](Cn1c(=O)n(C(C)(C)C(=O)NC2CC2)c(=O)c2c(C)c(-n3nccn3)sc21)OC(C)C` [Compound I-73, (R)—N-cyclopropyl-2-(1-(2-(5-fluoro-2-methoxyphenyl)-2-isopropoxyethyl)-5-methyl-2,4-dioxo-6-(2H-1,2,3-triazol-2-yl)-1,4-dihydrothieno[2,3-d]pyrimidin-3(2H)-yl)-2-methylpropanamide], the MIC in the experiment with C. krusei (setting [4]) fell in the range of 0.25 to 1 µg/mL (≈ 0.428 to 1.71 µM); in the experiment on C. krusei (setting [5]), 0.06 to 0.249 µg/mL (≈ 0.103 to 0.426 µM); with C. albicans (setting [16]), 0.25 to 1 µg/mL (≈ 0.428 to 1.71 µM); with C. albicans (setting [17]), 0.25 to 1 µg/mL (≈ 0.428 to 1.71 µM); in the experiment on C. parapsilosis (setting [18]), 0.25 to 1 µg/mL (≈ 0.428 to 1.71 µM); with C. parapsilosis (setting [19]), 1.01 to 2 µg/mL (≈ 1.73 to 3.42 µM). Further, the IC50 on fungal (fACC2) (Table 2a) lay in the range of 1 to 5 nM; at fungal (fACC2) (Table 2b, additional results), 1 to 5 nM. The IC90 with Rhizoctonia solani (Rs) (setting [6]) worked out at 0.4 µg/mL (≈ 0.684 µM); in the experiment with Rhizoctonia solani (Rs) (setting [7]), 0.4 µg/mL (≈ 0.684 µM); in the experiment on Botrtyis cinerea (Bc) (setting [8]) it was 2 µg/mL (≈ 3.42 µM); in the experiment with Botrtyis cinerea (Bc) (setting [9]), 2 µg/mL (≈ 3.42 µM); in [1] (setting [10]), 0.4 µg/mL (≈ 0.684 µM); in experiment [1] (setting [11]), 0.4 µg/mL (≈ 0.684 µM). The IC90 in the experiment on Septoria tritici (St) (setting [12]) was above 50 µg/mL; in the experiment with Septoria tritici (St) (setting [13]), above 50 µg/mL; in experiment [2] (setting [14]) it was 2 µg/mL (≈ 3.42 µM); in experiment [2] (setting [15]), 2 µg/mL (≈ 3.42 µM); in experiment [3] (setting [20]) it was 0.08 µg/mL (≈ 0.137 µM); in experiment [3] (setting [21]), 0.08 µg/mL (≈ 0.137 µM). In addition, the IC90 in the experiment on Diplodia maydis (Dm) (setting [22]) and in the experiment on Diplodia maydis (Dm) (setting [23]) was 2 µg/mL (≈ 3.42 µM) each time.
For `COc1ccc(F)cc1[C@H](Cn1c(=O)n(C(C)(C)C(=O)N2CCCC2)c(=O)c2c(C)c(-n3nccn3)sc21)OCCN(C)C` [Compound I-75, (R)-1-(2-(2-(dimethylamino)ethoxy)-2-(5-fluoro-2-methoxyphenyl)ethyl)-5-methyl-3-(2-methyl-1-oxo-1-(pyrrolidin-1-yl)propan-2-yl)-6-(2H-1,2,3-triazol-2-yl)thieno[2,3-d]pyrimidine-2,4(1H,3H)-dione], the MIC in the experiment on C. krusei (setting [4]) was 2.1 to 4 µg/mL (≈ 3.35 to 6.37 µM); in the experiment on C. krusei (setting [5]) it was 2.01 to 4 µg/mL (≈ 3.2 to 6.37 µM); in the experiment with C. albicans (setting [16]), 2.1 to 4 µg/mL (≈ 3.35 to 6.37 µM); in the experiment on C. albicans (setting [17]) it was 2.01 to 4 µg/mL (≈ 3.2 to 6.37 µM); in the experiment on C. parapsilosis (setting [18]), 2.1 to 4 µg/mL (≈ 3.35 to 6.37 µM); in the experiment on C. parapsilosis (setting [19]), 1.01 to 2 µg/mL (≈ 1.61 to 3.19 µM). In addition, the IC50 at fungal (fACC2) (Table 2a) lay in the range of 1 to 5 nM; at fungal (fACC2) (Table 2b, additional results), 1 to 5 nM. The IC90 (with Rhizoctonia solani (Rs) (setting [6]); in the experiment on Rhizoctonia solani (Rs) (setting [7]); in the experiment on Botrtyis cinerea (Bc) (setting [8]); with Botrtyis cinerea (Bc) (setting [9]); in experiment [1] (setting [10]); in experiment [1] (setting [11])) was above 50 µg/mL in each case. The IC90 (in the experiment with Septoria tritici (St) (setting [12]); in the experiment with Septoria tritici (St) (setting [13]); in [2] (setting [14]); in experiment [2] (setting [15]); in [3] (setting [20]); in experiment [3] (setting [21])) was above 50 µg/mL throughout. Besides, the IC90 with Diplodia maydis (Dm) (setting [22]) and in the experiment on Diplodia maydis (Dm) (setting [23]) was above 50 µg/mL each time.
On to `COc1ccc(F)cc1[C@H](Cn1c(=O)n(C(C)(C)C(=O)NC(C)C)c(=O)c2c(C)c(-n3nccn3)sc21)OCCN(C)C` [Compound I-76, (R)-2-(1-(2-(2-(dimethylamino)ethoxy)-2-(5-fluoro-2-methoxyphenyl)ethyl)-5-methyl-2,4-dioxo-6-(2H-1,2,3-triazol-2-yl)-1,4-dihydro-thieno[2,3-d]pyrimidin-3(2H)-yl)-N-isopropyl-2-methylpropanamide], for which the MIC in the experiment on C. krusei (read-out: MIC, C. krusei ATCC 6258, Table 3a, 3 replicates, MIC recorded at 48 h) fell in the range of 2.1 to 4 µg/mL (≈ 3.41 to 6.5 µM); in the experiment on C. krusei (read-out: MIC, C. krusei ATCC 6258, Table 3b (additional results), 3 replicates, MIC recorded at 48 h) it was 0.25 to 1 µg/mL (≈ 0.406 to 1.62 µM); in the experiment on C. albicans (read-out: MIC, C. albicans ATCC 90028, Table 3a, 3 replicates, MIC recorded at 48 h), 2.1 to 4 µg/mL (≈ 3.41 to 6.5 µM); in the experiment with C. albicans (read-out: MIC, C. albicans ATCC 90028, Table 3b (additional results), 3 replicates, MIC recorded at 48 h), 1.01 to 2 µg/mL (≈ 1.64 to 3.25 µM); in the experiment with C. parapsilosis (read-out: MIC, C. parapsilosis ATCC 22019, Table 3a, 3 replicates, MIC recorded at 48 h) it was 2.1 to 4 µg/mL (≈ 3.41 to 6.5 µM); in the experiment on C. parapsilosis (read-out: MIC, C. parapsilosis ATCC 22019, Table 3b (additional results), 3 replicates, MIC recorded at 48 h), 0.25 to 1 µg/mL (≈ 0.406 to 1.62 µM). Further, the IC50 on fungal (fACC2) (Table 2a) was in the range of 1 to 5 nM; at fungal (fACC2) (Table 2b, additional results), 1 to 5 nM. Besides, the IC90 in the experiment with Rhizoctonia solani (Rs) (read-out: Concentration at 90% Inhibition Rs, Rhizoctonia solani, mycelial plugs, growth inhibition at 48 hours vs 2% DMSO control) is 10 µg/mL (≈ 16.2 µM); with Rhizoctonia solani (Rs) (read-out: Concentration at 90% Inhibition Rs, Rhizoctonia solani, mycelial plugs, growth inhibition vs 2% DMSO control at 48 hours), above 50 µg/mL; with Botrtyis cinerea (Bc) (read-out: Concentration at 90% Inhibition Bc, Botrtyis cinerea, growth inhibition at 48 hours vs 2% DMSO control), above 50 µg/mL; in the experiment on Botrtyis cinerea (Bc) (read-out: Concentration at 90% Inhibition Bc, Botrtyis cinerea, growth inhibition vs 2% DMSO control at 48 hours), above 50 µg/mL; in [1] (read-out: Concentration at 90% Inhibition Fv, Fusarium virguliforme, growth inhibition at 48 hours vs 2% DMSO control), above 50 µg/mL; in experiment [1] (read-out: Concentration at 90% Inhibition Fv, Fusarium virguliforme, growth inhibition vs 2% DMSO control at 48 hours), above 50 µg/mL. Moreover, the IC90 is above 50 µg/mL in the experiment on Septoria tritici (St) (read-out: Concentration at 90% Inhibition St, Septoria tritici, growth inhibition at 48 hours vs 2% DMSO control); above 50 µg/mL in the experiment on Septoria tritici (St) (read-out: Concentration at 90% Inhibition St, Septoria tritici, growth inhibition vs 2% DMSO control at 48 hours); above 50 µg/mL in experiment [2] (read-out: Concentration at 90% Inhibition Cg, Collectotrichum graminicola, growth inhibition at 48 hours vs 2% DMSO control); above 50 µg/mL in experiment [2] (read-out: Concentration at 90% Inhibition Cg, Collectotrichum graminicola, growth inhibition vs 2% DMSO control at 48 hours); above 50 µg/mL in experiment [3]; above 50 µg/mL in the experiment on Diplodia maydis (Dm) (read-out: Concentration at 90% Inhibition Dm, Diplodia maydis, growth inhibition at 48 hours vs 2% DMSO control). Besides, the IC90 with Diplodia maydis (Dm) (read-out: Concentration at 90% Inhibition Dm, Diplodia maydis, growth inhibition vs 2% DMSO control at 48 hours) was above 50 µg/mL. For the same compound, in experiment [3] (setting [20]), the “Concentration at 90% Inhibition Fm” value is “D (compound concentration of >50 ppm at 90% inhibition of fungal pathogens)”.
